Test system: 616215-338-R-J1-PDC complex spheroid viability
Assay: Anticancer human tumor 616215-338-R-J1-PDC patient-derived colon adenocarcinoma cell line growth inhibition [RAS]
Conditions: for IC50: curve of first compound; for viability, T/C: stronger effect = lower value
Summary of the method: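 Agents were tested in combination matrices in half-log decrements from a top concentration at or near clinical Cmax (10 microM if undetermined). Targets were multi-cell spheroids of tumour lines plus HUVEC and MSC stromal cells.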

[1] = second compound 0.0316 µM, first compound 0.000949 µM
[2] = second compound 0.0316 µM, first compound 0.003 µM
[3] = second compound 0.0316 µM, first compound 0.00949 µM
[4] = second compound 0.0316 µM, first compound 0.03 µM
[5] = second compound 0.0316 µM, first compound 0.0949 µM
[6] = second compound 0.0316 µM, first compound 0.3 µM
[7] = second compound 0.1 µM, first compound 0.000949 µM
[8] = second compound 0.1 µM, first compound 0.003 µM
[9] = second compound 0.1 µM, first compound 0.00949 µM
[10] = second compound 0.1 µM, first compound 0.03 µM
[11] = second compound 0.1 µM, first compound 0.0949 µM
[12] = second compound 0.1 µM, first compound 0.3 µM
[13] = second compound 0.316 µM, first compound 0.000949 µM
[14] = second compound 0.316 µM, first compound 0.003 µM
[15] = second compound 0.316 µM, first compound 0.00949 µM
[16] = second compound 0.316 µM, first compound 0.03 µM
[17] = second compound 0.316 µM, first compound 0.0949 µM
[18] = second compound 0.316 µM, first compound 0.3 µM
[19] = second compound 1 µM, first compound 0.000949 µM
[20] = second compound 1 µM, first compound 0.003 µM
[21] = second compound 1 µM, first compound 0.00949 µM
[22] = second compound 1 µM, first compound 0.03 µM
[23] = second compound 1 µM, first compound 0.0949 µM
[24] = second compound 1 µM, first compound 0.3 µM
[25] = second compound 3.16 µM, first compound 0.000949 µM
[26] = second compound 3.16 µM, first compound 0.003 µM
[27] = second compound 3.16 µM, first compound 0.00949 µM
[28] = second compound 3.16 µM, first compound 0.03 µM
[29] = second compound 3.16 µM, first compound 0.0949 µM
[30] = second compound 3.16 µM, first compound 0.3 µM
[31] = second compound 10 µM, first compound 0.000949 µM
[32] = second compound 10 µM, first compound 0.003 µM
[33] = second compound 10 µM, first compound 0.00949 µM
[34] = second compound 10 µM, first compound 0.03 µM
[35] = second compound 10 µM, first compound 0.0949 µM
[36] = second compound 10 µM, first compound 0.3 µM
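Note: spheroids exposed to agents for seven days before viability readout.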
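Throughout, for viability, T/C: 100% = DMSO vehicle control viability.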

C=CC(=O)N1CCN(c2nc(OCC3CCCN3C)nc3c(F)c(-c4nc(N)cc(C)c4C(F)(F)F)c(Cl)cc23)C(C)C1 (stereo unspecified) + C#Cc1c(F)ccc2cc(O)cc(-c3ncc4c(N5CC6CCC(C5)N6)nc(OCC56CCCN5CC(F)C6)nc4c3F)c12
IC50 (second compound 0.0316 µM): > 1000 nM
IC50 (second compound 0.1 µM): > 1000 nM
IC50 (second compound 0.316 µM): > 1000 nM
IC50 (second compound 1 µM): > 1000 nM
IC50 (second compound 3.16 µM): > 1000 nM
IC50 (second compound 10 µM): > 1000 nM
viability, T/C (second compound 0.0316 µM, first compound 0.00316 µM): 107%
viability, T/C (second compound 0.0316 µM, first compound 0.01 µM): 112%
viability, T/C (second compound 0.0316 µM, first compound 0.0316 µM): 101%
viability, T/C (second compound 0.0316 µM, first compound 0.1 µM): 106%
viability, T/C (second compound 0.0316 µM, first compound 0.316 µM): 100%
viability, T/C (second compound 0.0316 µM, first compound 1 µM): 104%
viability, T/C (second compound 0.1 µM, first compound 0.00316 µM): 121%
viability, T/C (second compound 0.1 µM, first compound 0.01 µM): 105%
viability, T/C (second compound 0.1 µM, first compound 0.0316 µM): 109%
viability, T/C (second compound 0.1 µM, first compound 0.1 µM): 107%
viability, T/C (second compound 0.1 µM, first compound 0.316 µM): 108%
viability, T/C (second compound 0.1 µM, first compound 1 µM): 102%
viability, T/C (second compound 0.316 µM, first compound 0.00316 µM): 112%
viability, T/C (second compound 0.316 µM, first compound 0.01 µM): 104%
viability, T/C (second compound 0.316 µM, first compound 0.0316 µM): 109%
viability, T/C (second compound 0.316 µM, first compound 0.1 µM): 112%
viability, T/C (second compound 0.316 µM, first compound 0.316 µM): 107%
viability, T/C (second compound 0.316 µM, first compound 1 µM): 112%
viability, T/C (second compound 1 µM, first compound 0.00316 µM): 122%
viability, T/C (second compound 1 µM, first compound 0.01 µM): 123%
viability, T/C (second compound 1 µM, first compound 0.0316 µM): 114%
viability, T/C (second compound 1 µM, first compound 0.1 µM): 120%
viability, T/C (second compound 1 µM, first compound 0.316 µM): 124%
viability, T/C (second compound 1 µM, first compound 1 µM): 109%
viability, T/C (second compound 3.16 µM, first compound 0.00316 µM): 125%
viability, T/C (second compound 3.16 µM, first compound 0.01 µM): 107%
viability, T/C (second compound 3.16 µM, first compound 0.0316 µM): 109%
viability, T/C (second compound 3.16 µM, first compound 0.1 µM): 112%
viability, T/C (second compound 3.16 µM, first compound 0.316 µM): 109%
viability, T/C (second compound 3.16 µM, first compound 1 µM): 105%
viability, T/C (second compound 10 µM, first compound 0.00316 µM): 102%
viability, T/C (second compound 10 µM, first compound 0.01 µM): 93.8%
viability, T/C (second compound 10 µM, first compound 0.0316 µM): 92.8%
viability, T/C (second compound 10 µM, first compound 0.1 µM): 99.3%
viability, T/C (second compound 10 µM, first compound 0.316 µM): 110%
viability, T/C (second compound 10 µM, first compound 1 µM): 93%

CC1(C)CCC(Nc2ncc(C(F)(F)F)c(-c3c[nH]c4c(P(C)(C)=O)c(C#N)ccc34)n2)CN1 (stereo unspecified) + C#Cc1c(F)ccc2cc(O)cc(-c3ncc4c(N5CC6CCC(C5)N6)nc(OCC56CCCN5CC(F)C6)nc4c3F)c12
IC50 (second compound 0.0316 µM): 19 nM
IC50 (second compound 0.1 µM): 13.4 nM
IC50 (second compound 0.316 µM): 18.9 nM
IC50 (second compound 1 µM): 10.7 nM
IC50 (second compound 3.16 µM): 8.28 nM
IC50 (second compound 10 µM): 5.91 nM
viability, T/C [1]: 103%
viability, T/C [2]: 112%
viability, T/C [3]: 70.1%
viability, T/C [4]: 37.4%
viability, T/C [5]: 35.9%
viability, T/C [6]: 36.8%
viability, T/C [7]: 107%
viability, T/C [8]: 105%
viability, T/C [9]: 56.7%
viability, T/C [10]: 37.7%
viability, T/C [11]: 31.8%
viability, T/C [12]: 28.2%
viability, T/C [13]: 109%
viability, T/C [14]: 105%
viability, T/C [15]: 66.5%
viability, T/C [16]: 40.5%
viability, T/C [17]: 32.3%
viability, T/C [18]: 31.9%
viability, T/C [19]: 117%
viability, T/C [20]: 108%
viability, T/C [21]: 52.1%
viability, T/C [22]: 31.2%
viability, T/C [23]: 27.8%
viability, T/C [24]: 31.2%
viability, T/C [25]: 109%
viability, T/C [26]: 89.3%
viability, T/C [27]: 45.8%
viability, T/C [28]: 27.8%
viability, T/C [29]: 34.1%
viability, T/C [30]: 36.7%
viability, T/C [31]: 96.5%
viability, T/C [32]: 69.3%
viability, T/C [33]: 37.5%
viability, T/C [34]: 24.7%
viability, T/C [35]: 32.5%
viability, T/C [36]: 31.7%

CCc1c2c(nc3ccc(O)cc13)-c1cc3c(c(=O)n1C2)COC(=O)[C@]3(O)CC + C#Cc1c(F)ccc2cc(O)cc(-c3ncc4c(N5CC6CCC(C5)N6)nc(OCC56CCCN5CC(F)C6)nc4c3F)c12
IC50 (second compound 0.0316 µM): 10.2 nM
IC50 (second compound 0.1 µM): 10.7 nM
IC50 (second compound 0.316 µM): 16.8 nM
IC50 (second compound 1 µM): 7.72 nM
IC50 (second compound 3.16 µM): 4.71 nM
IC50 (second compound 10 µM): < 0.949 nM
viability, T/C [1]: 108%
viability, T/C [2]: 108%
viability, T/C [3]: 50.2%
viability, T/C [4]: 35%
viability, T/C [5]: 21.1%
viability, T/C [6]: 16.5%
viability, T/C [7]: 116%
viability, T/C [8]: 103%
viability, T/C [9]: 50.8%
viability, T/C [10]: 27.9%
viability, T/C [11]: 21.6%
viability, T/C [12]: 13.6%
viability, T/C [13]: 112%
viability, T/C [14]: 100%
viability, T/C [15]: 63%
viability, T/C [16]: 36%
viability, T/C [17]: 20.6%
viability, T/C [18]: 14%
viability, T/C [19]: 120%
viability, T/C [20]: 89.6%
viability, T/C [21]: 38.7%
viability, T/C [22]: 30.5%
viability, T/C [23]: 20.2%
viability, T/C [24]: 15.8%
viability, T/C [25]: 89.3%
viability, T/C [26]: 65.8%
viability, T/C [27]: 25.1%
viability, T/C [28]: 20%
viability, T/C [29]: 15.1%
viability, T/C [30]: 13.2%
viability, T/C [31]: 47.1%
viability, T/C [32]: 45%
viability, T/C [33]: 17.5%
viability, T/C [34]: 17.6%
viability, T/C [35]: 16.6%
viability, T/C [36]: 10.7%

— PubChem BioAssay AID2060898 (Molecular Pharmacology Branch, DTP, NCI, 2025)
